The text below walks through data of paper PMC3558989 (Journal of Chemotherapy (Florence, Italy), 2013).

Broadly, the fraction unbound is the share of the substance not bound to proteins or other matrix. Low values mean little free substance, high ones much free substance.

Series [1] deals with MSSA 29213, MRSA A6250596 (fluoroquinolone-resistant) and MRSA A7080336. As to the kind of experiment: Further combination study of AFN-1252. The settings on record: three strains. Type of series: cell-based, S. aureus.
The subject of series [2] is 20 strains of staphylococci, including 10 MRSA. As to the kind of experiment: MIC with and without pulmonary surfactant, all strains. The class given is cell-based, S. aureus. The settings on record: for effect of pulmonary surfactant on MICs: in words.
A short description of another series: in vitro. To be noted: mouse.
The next series relates to MSSA 29213. Description: Effect of serum binding on MIC.
Another series has as its system MRSA 1659. As to the kind of experiment: Effect of serum on rate of kill. The settings on record: for reduction in the viable count: 10 hours. Type of series: cell-based, S. aureus.
A further series relates to S. aureus Smith. The settings on record: single oral dose of 1 mg/kg, mouse; cited from earlier work.
Series [3] has as its system serum proteins of mouse, rat, dog and humans. As to the kind of experiment: Serum protein-binding assays, summary over methods and species. The class given is in vitro ADME, human.

On to penicillin, for which the “interaction with AFN-1252” value in series [1] is listed as “did not detect any synergy or antagonism”.
For `C[C@@H](O)[C@H]1C(=O)N2C(C(=O)O)=C(S[C@@H]3CN[C@H](C(=O)N(C)C)C3)[C@H](C)[C@H]12` [meropenem], in series [1], the “interaction with AFN-1252” value is given as “did not detect any synergy or antagonism”.
For `CO/N=C(\C(=O)N[C@@H]1C(=O)N2C(C(=O)O)=C(COC(N)=O)CS[C@H]12)c1ccco1` [Cefuroxime], the “interaction with AFN-1252” value in series [1] is “did not detect any synergy or antagonism”.
Regarding `C[C@H]1COc2c(N3CCN(C)CC3)c(F)cc3c(=O)c(C(=O)O)cn1c23` [Levofloxacin], in series [1], the “interaction with AFN-1252” value is given as “did not detect any synergy or antagonism”.
In the case of `CN[C@H](CC(C)C)C(=O)N[C@H]1C(=O)N[C@@H](CC(N)=O)C(=O)N[C@H]2C(=O)N[C@H]3C(=O)N[C@H](C(=O)N[C@H](C(=O)O)c4cc(O)cc(O)c4-c4cc3ccc4O)[C@H](O)c3ccc(c(Cl)c3)Oc3cc2cc(c3O[C@@H]2O[C@H](CO)[C@@H](O)[C@H](O)[C@H]2O[C@H]2C[C@](C)(N)[C@H](O)[C@H](C)O2)Oc2ccc(cc2Cl)[C@H]1O` [Vancomycin], the “effect of pulmonary surfactant on MICs” value in series [2] is given as “generally unaffected”.
Take `CCCCCCCCCC(=O)N[C@@H](Cc1c[nH]c2ccccc12)C(=O)N[C@H](CC(N)=O)C(=O)N[C@@H](CC(=O)O)C(=O)N[C@@H]1C(=O)NCC(=O)N[C@@H](CCCN)C(=O)N[C@@H](CC(=O)O)C(=O)N[C@H](C)C(=O)N[C@@H](CC(=O)O)C(=O)NCC(=O)N[C@H](CO)C(=O)N[C@@H]([C@H](C)CC(=O)O)C(=O)N[C@@H](CC(=O)c2ccccc2N)C(=O)O[C@@H]1C` [Daptomycin]: in series [2] (presence of surfactant at 0·8 mg/ml), the “elevation of MICs” value is “at least 32 fold”.
Consider `CO/N=C(\C(=O)N[C@@H]1C(=O)N2C(C(=O)O)=C(CSc3nc(=O)c(=O)[nH]n3C)CS[C@H]12)c1csc(N)n1` [ceftriaxone], for which the “interaction with AFN-1252” value in series [1] is recorded as “did not detect any synergy or antagonism”.
Consider `COc1c(N2CCNC(C)C2)c(F)cc2c(=O)c(C(=O)O)cn(C3CC3)c12` (stereo not shown) [gatifloxacin], for which the “interaction with AFN-1252” value in series [1] was “did not detect any synergy or antagonism”.
Compound `Cc1c(CN(C)C(=O)/C=C/c2cnc3c(c2)CCC(=O)N3)oc2ccccc12` [AFN-1252] had a fraction unbound in “in vitro” of 0.06 to 0.08. Further, the “increase in MIC” value in the series on MSSA 29213 (4% human serum albumin in CAMHB) and in the series on MSSA 29213 (50% human serum vs serum-free CAMHB) was 8 fold throughout. For the same compound, the “binding from MIC shift” value with MSSA 29213 (50% serum) is on record as “approximately 90%”. In series [2], the “effect of pulmonary surfactant on MICs” value is “not affected”. Moreover, the “effect on viable count” value in the series on MRSA 1659 (75% human serum, 8× MIC) is recorded as “bacteriostatic activity”; in the series on MRSA 1659 (75% mouse serum, 64× MIC), “bacteriostasis”. Also, the “reduction in the viable count” value in the series with MRSA 1659 (75% human serum, 64× MIC) was 2 log10; in the series with MRSA 1659 (absence of serum, 4× MIC) it was 1–2 log10; in the series with MRSA 1659 (absence of serum, 64× MIC), 4 log. Moreover, the “protection from lethal peritoneal infection” value in the series on S. aureus Smith is recorded as 100%. The “serum binding, equilibrium dialysis” value in series [3] (all serum types, all concentrations) was “exceeded 95%”. The “binding to serum proteins” value in series [3] (mouse, rat, dog and humans, overall) was about 95%.
With `CC[C@H]1OC(=O)[C@H](C)[C@@H](O[C@H]2C[C@@](C)(OC)[C@@H](O)[C@H](C)O2)[C@H](C)[C@@H](O[C@@H]2O[C@H](C)C[C@H](N(C)C)[C@H]2O)[C@](C)(O)C[C@@H](C)CN(C)[C@H](C)[C@@H](O)[C@]1(C)O` [azithromycin], the “interaction with AFN-1252” value in series [1] is “did not detect any synergy or antagonism”.
